The subject of one test is platelet aggregation. Briefly: Rabbit biolaser ear chamber antithrombotic model. The test is classed as in vivo. Conditions: 100mg/kg oral. The method, then: The antithrombotic properties of gamma-tocotrienol were evaluated in a rabbit biolaser ear chamber model. Fasted rabbits were orally dosed with either vehicle or vehicle plus gamma-tocotrienol at 100mg/kg. An erythrocyte contained within a capillary, near the ear surface, is ruptured with a laser shot, thereby releasing platelet aggregating ADP. gamma-Tocotrienol inhibited platelet aggregation 37% at about 2 hours after oral dosing, 44% after about 4 hours and 25% after about 6 hours as measured by averaging the mean thrombus area over 10 trials.

Test [1] deals with Cholesterol Synthesis in Isolated Rat Hepatocytes. Briefly: Rat hepatocyte cholesterol biosynthesis model (14C-acetate incorporation into digitonin-precipitable sterols). In kind it is cell-based. Conditions: rat and chicken hepatocyte system. The protocol:
Primary rat parenchymal hepatocytes were prepared from male Wistar rats (180-220 g) at mid-dark in the diurnal cycle by standard collagenase perfusion method as described previously. Ingebritsen et al. J. Biol. Chem., 254: 9986-9989, (1979). Aliquots of cells were suspended (100 mg in 2 ml) in Eagle's minimum essential medium (MEM) supplemented with 2% bovine albumin, and preincubated in a shaking water bath at about 37° under 95% O₂/5% CO₂ with compounds added as given in the data. […] Following a preincubation of about 15 to about 45 minutes as indicated, cholesterol synthesis in intact cells was assayed by 2-14C-acetate (1.8 mCi/mmol, 0.5 µCi/ml) incorporation for about 30 to about 60 minutes (previously shown to be time-linear) into total digitonin-precipitable sterols. […] Percent inhibition was calculated from the average of duplicates vs. triplicate vehicle controls conducted simultaneously.
The primary rat hepatocyte assay for cholesterol bio-synthesis inhibition was conducted as described in Example 2 except the preincubation was about 45 minutes and the 14C-acetate incorporation was about 30 minutes. The indicated compounds were purified from the same natural product source as the mixture used in Example 2. […] Two-component mixtures of the constituents separated from the tocotrienol mixture were tested under the conditions indentical to Table 2A.

In test [2] the test system is Cholesterol Synthesis in HepG2 Cells. Kind of test: HepG2 cell culture model, 14C-acetate incorporation assay. Conditions: for Rel. Potency: γ-Tocotrienol = 1.0; for pIC50: Homo sapiens, HepG2, read-out: IC₅₀. The test is classed as cell-based, human. The method, then: HepG2 cells obtained from the American Type Culture Collection were routinely passaged in RPMI-1640 plus 10% fetal bovine serum (FBS) and were subcultured into 35 mm diameter wells for experiments. […] The LDS medium supplement was prepared according to Cham et al., J. Lipid Res., 17: 176-181, (1976). After about 16 hours in LDS containing media, test compounds were added in dimetthylsulfoxide vehicle (0.5% v/v final conc.) for the period of time indicated in the data (generally 4 hours). Cholesterol synthesis was then directly determined by the incorporation of 2-14C-acetate (1.8-3.0 mCi/mmol) into digitonin-precipitable sterols essentially as described for the rat hepatocyte methol above. Greater than 97% of the radiolabelled sterol isolated by this procedure was cholesterol as judged by HPLC. Percent inhibition was calculated from the average of duplicates or triplicates vs. controls receiving vehicle.
The human hepatoma HepG2 cell culture model was employed to compare the intrinsic activities of the tocotrienols. HepG2 cells were incubated with the indicated compounds for about 4 hours at 10 µM. Cholestrol synthesis was assayed by 14C-acetate incorporation and HMG-CoA reductase suppression was assayed in the isolated microsomal fraction. Cholesterol synthesis inhibition was assayed by 14C-acetate incorporation after preincubation of HepG2 cells with the compounds for about 2 hours or about 4 hours (Example IV). […] As the data in Figure 1 indicate, gamma-tocotrienol has an even greater relative potency compared to alpha-tocotrienol in the HepG2 cell model than in rat hepatocytes. The IC50s from these studies are given in Table 3, in which it can be seen that the intrinsic potency of gamma-tocotrienol is over 30-fold greater than that of alpha-tocotrienol.

A short description of test [3]: Pure gamma-tocotrienol capsules in hypercholesterolemic human subjects. The test is classed as in vivo. Conditions: capsules 50 mg/capsule, after 4 weeks of feeding; serum cholesterol levels 302.5 mg/dl.

pIC50: −log10 of the molar value. Where two headings read alike, the source gives them in different places.

Take `CC(C)=CCC/C(C)=C/CC/C(C)=C/CCC1(C)CCc2cc(O)c(C)c(C)c2O1` (stereo not shown) [γ-Tocotrienol]: the inhibited platelet aggregation with platelet aggregation (about 2 hours after dosing, mean thrombus area over 10 trials) was 37%; in the test on platelet aggregation (about 4 hours after dosing), 44%; in the test on platelet aggregation (about 6 hours after dosing) it was 25%. Further, in test [1], the “times more active than alpha-tocotrienol” value was “at least 5 times”. Also, the “Rel. Potency” value in test [2] (2 hr. Incubation) and in test [2] (4 hr. Incubation) was 1.0 in each case. Besides, the pIC50 was 5.23 in test [2] (2 hr. Incubation) and 5.55 in test [2] (4 hr. Incubation). The “intrinsic potency greater than that of alpha-tocotrienol” value in test [2] (from IC50s of Table 3) is reported as “over 30 fold”. The “decrease in serum cholesterol levels” value in test [3] was found to be 35%.

The record behind these values is patent EP0421419A2, “Tocotrienols in the treatment of hypercholesterolemia, hyperlipidemia and thromboembolic disorders” (Bristol-Myers Squibb Company, priority 1989, dated 1991).
